Results published in the NIST ThermoML archive (doi:10.1016/j.tca.2006.03.011).
Numbers after ± are expanded uncertainties.

Legend:
[1] = DTA; for Normal melting temperature: Crystal 1
[2] = Molar enthalpy of transition or fusion; conditions: DSC

| SMILES | Normal melting temperature [1] | Molar enthalpy of transition or fusion ([2]; Crystal 1) | Triple point temperature ([1]; Crystal 2) | Triple point temperature ([1]; Crystal 3) | Molar enthalpy of transition or fusion ([2]; Crystal 2) | Molar enthalpy of transition or fusion ([2]; Crystal 3) |
| --- | --- | --- | --- | --- | --- | --- |
| CCCCCCCCCCCCCCCCCCCC [eicosane] | 38.5 ± 0.71 °C | 16.5 ± 0.43 kcal/mol |  |  |  |  |
| CCCCCCCCCCCCCCCCCCCCCCCCCCCCCCCCCCCC [hexatriacontane] | 77.04 ± 0.71 °C | 19.5 ± 0.502 kcal/mol | 348.28 ± 0.71 K | 347.33 ± 0.71 K | 5.91 ± 0.172 kcal/mol | 2.8 ± 0.0932 kcal/mol |
| c1ccc2ccccc2c1 [naphthalene] | 81.54 ± 0.71 °C | 4.67 ± 0.141 kcal/mol |  |  |  |  |
| CCCCCCCCCCCCCCCCCCCCCCCCC [pentacosane] | 52.77 ± 0.71 °C | 13.3 ± 0.359 kcal/mol | 312.9 ± 0.71 K | 309 ± 0.71 K | 0.256 ± 0.0311 kcal/mol | 5.71 ± 0.167 kcal/mol |
